Laboratory results published in article PMC12227648, “Chemoproteomics identifies protein ligands for monoacylglycerol lipids” (Communications Chemistry, 2025).

Assays:
mouse HPCA (Hippocalcin) [1] = biological target: T1, mouse HPCA (Hippocalcin) (Mus musculus, UniProt P84075); assay: effect on PG-DA photo-labelling, in-gel fluorescence; conditions: HPCA 10 uM, PG-DA 10 uM, 1-PG 0-250 uM, 37 C, 30 min; raises, not competes, probe binding (suggested cooperative)
T1 construct: full-length cDNA in pET45b(+), N-terminal 6x-His tag kept, E. coli BL21 (DE3), HisTrap purified; major ~20 kDa and minor ~25 kDa bands

mouse HPCA (Hippocalcin) [2] = biological target: T1, mouse HPCA (Hippocalcin); assay: UV photocrosslinking, click rhodamine-azide, in-gel fluorescence; type: binding; conditions: probe 10 uM or 0-250 uM, HPCA 10 uM, 50 mM Tris pH 8.0, 37 C, 6 min UV 365 nm, covalent photo-crosslink
[3] = biological target: T2, HPCA (N-terminal FLAG tag) in HEK293T lysates (Mus musculus, UniProt P84075); assay: UV photocrosslinking in lysate, click, in-gel fluorescence; type: biochemical; conditions: probe 50 uM, 2 mg/mL HEK293T lysate; covalent photo-crosslink; mock control
T2 construct: N-terminal FLAG tag, transiently overexpressed in HEK293T

## CCCCCCCCCCCCCCCC(=O)OCC(O)CO (stereo not shown) [1-PG]
Mouse HPCA (Hippocalcin) [1]
  effect on PG-DA photo-labelling, in-gel fluorescence: increasing the 1-PG concentration resulted in the heightened binding of the PG-DA probe

## C#CCCCC1(CCCCCCCCCC(=O)O)N=N1 [PA-DA]
Mouse HPCA (Hippocalcin) [2]; weaker control probe
  UV photocrosslinking, click rhodamine-azide, in-gel fluorescence: PG-DA probe binds far more to HPCA than the PA-DA probe

## C#CCCCC1(CCCCCCCCCC(=O)OCC(O)CO)N=N1 (stereo not shown) [PG-DA]
[3]
  UV photocrosslinking in lysate, click, in-gel fluorescence: PG-DA probe, but not PA-DA probe, was able to bind to HPCA in HEK293T lysates
Mouse HPCA (Hippocalcin) [2]; Ca2+ surplus versus EDTA compared
  UV photocrosslinking, click rhodamine-azide, in-gel fluorescence: PG-DA bound significantly more to mouse HPCA than the PA-DA probe
